{"source": "paper PMC11259557", "about": "(Cancer Medicine, 2024)", "origin": "cited, not measured here", "key": {"[1]": {"set-up": "method as in PMID 26337806, PMID 27196567"}}, "note": "Read-outs that look alike come from different tables or passages of the source.", "data": [{"compound": "CC(C)C[C@H](NC(=O)[C@H](CCc1ccccc1)NC(=O)CN1CCOCC1)C(=O)N[C@@H](Cc1ccccc1)C(=O)N[C@@H](CC(C)C)C(=O)[C@@]1(C)CO1", "note": "[carfilzomib]", "values": [{"measurement": "DCR", "setting": "multiple myeloma; phase I trial", "result": 39, "unit": "%"}]}, {"compound": "CC(C)C[C@H](NC(=O)[C@@H](NC(=O)c1cccc(-c2ccccc2)n1)[C@@H](C)O)B(O)O", "note": "[delanzomib]", "values": [{"measurement": "incidence of grade ≥3 diarrhea", "result": 19, "unit": "%"}, {"measurement": "incidence of peripheral neuropathy", "result": 21, "unit": "%"}]}, {"compound": "CC(C)C[C@H](NC(=O)CNC(=O)c1cc(Cl)ccc1Cl)B(O)O", "note": "[ixazomib]", "values": [{"measurement": "incidence of decreased platelet counts", "result": 43, "unit": "%"}, {"measurement": "peripheral neuropathy, any grade", "setting": "patients", "result": 27, "unit": "%"}, {"measurement": "peripheral neuropathy, grade 3", "setting": "patients", "result": 2, "unit": "%"}, {"measurement": "incidence of diarrhea", "setting": "phase 1 study in RRMM", "result": 38, "unit": "%"}, {"measurement": "incidence of grade ≥3 diarrhea", "setting": "phase 1 study in RRMM", "result": 17, "unit": "%"}, {"measurement": "incidence of peripheral neuropathy", "setting": "phase 1 study in RRMM", "result": 20, "unit": "%"}, {"measurement": "rate of grade ≥3 AEs", "setting": "phase 1 study in RRMM", "result": 53, "unit": "%"}, {"measurement": "incidence of diarrhea", "setting": "real-world settings", "result": 26.2, "unit": "%"}, {"measurement": "incidence of peripheral neuropathy", "setting": "real-world settings", "result": 35, "unit": "%"}, {"measurement": "incidence of ≥grade 3 diarrhea", "setting": "real-world settings", "result": 13.9, "unit": "%"}, {"measurement": "incidence of ≥grade 3 peripheral neuropathy", "setting": "real-world settings", "result": 3, "unit": "%"}, {"measurement": "participants who discontinued due to AEs", "setting": "study by Kumar et al.", "result": 12, "unit": "%"}, {"measurement": "T max", "setting": "[1]", "result": "1 to 1.5", "unit": "h"}, {"measurement": "half-life", "setting": "[1]", "result": "140 to 150", "unit": "h"}, {"measurement": "DCR", "setting": "multiple myeloma; monotherapy", "result": 50, "unit": "%"}]}, {"compound": "COC[C@H](NC(=O)c1cnc(C)s1)C(=O)N[C@@H](COC)C(=O)N[C@@H](Cc1ccccc1)C(=O)[C@@]1(C)CO1", "note": "[oprozomib]", "values": [{"measurement": "patients who experience diarrhea", "result": "Nearly all patients"}]}]}
